Test results published in US5840732A, “Imidazopyridine or imidazopyrimidine compounds, their production and use” (Takeda Chemical Industries Ltd., priority 1994, dated 1998).
pIC50: −log10 of the molar value.

Tests used:
[1] = tested on: ELAM-1 expression in human umbilical cord vascular endothelial cells; test: Inhibitory activity of adhesion molecule expression (ELAM-1, cell-ELISA); format: cell-based; settings: TNFα 1 ng/ml, 37° C., 3 hours
Protocol: (§1) Inhibitory activity of adhesion molecule expression
(§2) Test method: To human umbilical cord vascular endothelial cells (purchased from Kurabo), cultured on gelatin-coated plates, compounds at various concentrations (test compounds) were added, followed by incubation at 37° C. for 15 minutes. Human tumor necrosis factor (TNFα, purchased from Genzyme) was then added to a final concentration of 1 ng/ml, followed by incubation at 37° C. for 3 hours for ELAM-1 expression or for 5 hours for ICAM-1 expression. After the reaction, cells were fixed with glutaraldehyde; the amounts of ELAM-1 and ICAM-1 expressed were determined by cell-ELISA. Anti-ELAM-1 antibody BBA-2 and an anti-ICAM-1 antibody BBA-4 were used as the first antibodies for the defection of ELAM-1 and ICAM-1, respectively, and horse radish peroxidase-labeled rabbit anti-mouse IgG antibody was used as the second antibody to determine the amount of adhesion molecules expressed on cells observed. The compound concentration at which 50% expression was expressed as the 50% inhibitory concentration (IC50), with the amount of expression in the absence of compounds as 100 and the amount of expression in the absence of TNFα as 0.

[2] = tested on: ICAM-1 expression in human umbilical cord vascular endothelial cells; test: Inhibitory activity of adhesion molecule expression (ICAM-1, cell-ELISA); format: cell-based; settings: TNFα 1 ng/ml, 37° C., 5 hours
Protocol: as §1, §2

mouse skin allograft = test: Immunosuppressive action on mouse skin allograft; format: in vivo, mouse (BIOBR donors, C57BL/10 recipients); settings: 16 days
Protocol: Immunosuppressive action on mouse skin allograft
Test method: Male BIOBR mice and C57BL/10 mice, both at 6 weeks of age, were used as donors and recipients, respectively, and Grafts were prepared by killing donors by cervical vertebral dislocation, collecting full-thickness skin grafts from tail using a razor and tweezers, and cutting them into about 5 mm square pieces. Each graft was kept standing on gauze soaked with physiological saline, and used as soon as the recipient was prepared. Transplantation beds were prepared as follows. The recipient's back was clipped using clippers and sterilized with Isodine. Under ether anesthesia, back skin was picked up with tweezers, and a full-thickness skin graft was cut out into an about 5 mm square piece using scissors. The graft was transferred to the transplantation bed thus prepared, and fixed firmly using bandage. At 7 days after surgery, the bandage was removed, and the mice were observed every day to determine the day of complete necrosis of the graft as the rejection day. The compound was intraperitoneally administered in suspension in 5% gum arabic for 16 days after surgery.

## CCCC=C1SC(=O)N(CCCCOc2cccn3ccnc23)C1=O [compound 22]
[1]
  pIC50: 5.54
[2]
  pIC50: 5.34
Mouse skin allograft; 50 mg/kg/day intraperitoneal, control 13.0
  Mean Rejection Day: 18.8 days

## O=c1c(-c2ccccc2)c2n(c(=O)n1CCCCSc1cccc3nccn13)CCCS2(=O)=O [compound 24]
[1]
  pIC50: 6.10
[2]
  pIC50: 5.96
Mouse skin allograft; 10 mg/kg/day intraperitoneal, control 13.5
  Mean Rejection Day: 27.0 days
